Results as given in EP0192976A1, “Compounds having antihyperlipemic activity, processes for the preparation thereof and pharmaceutical compositions containing them” (BOEHRINGER BIOCHEMIA ROBIN S.p.A., priority 1985, dated 1986).
Like-named read-outs stand apart in the source and are kept apart here.

Columns and labels:
[1] = test system: fructose induced hypertriglyceridemia; experiment: Fructose induced hypertriglyceridemia; assay type: in vivo, Male Sprague-Dawley rats; conditions: fructose and Triton induced hypertriglyceridemias (test not given)
Method: (§1) The single compounds were administered orally at single equimolecular gradually increasing doses, in order to comparatively evaluate their hypocholesterolemic and hypotriglyceridemic activities. Normolipidemic, and hypercholesterolemic and hypertriglyceridemic rats, following to administration of diets respectively enriched in cholesterol and cholic acid (Nath diet) or 79.5% fructose, were used.
(§2) Male Sprague-Dawley rats of 180-200 g body weight were used. The compounds under test were administered as 1% tylose suspension, by means of gastric probe, 10 animals per dose in comparison with controls, treated with the sole vehicle.
(§3) In the serum the following values were determined: • a) total cholesterol, by enzymatic method; • b) HDL cholesterol, by enzymatic method, after precipitation of the other lipoproteins by addition of phospho- tungstic acid; • c) triglycerides by enzymatic method, i.e. by means of enzymatic hydrolysis and dosage of the formed glycerol.
(§4) The dosage of the liver triglycerides has been carried out by enzymatic method on the evaporated liver extract with chloroform:methanol 2:1.
(§5) The results were evaluated and expressed as % variation with respect to the control groups.
The hypotriglyceridemyzing activity of the compounds of the invention, as already mentioned, was evaluated in fructose and Triton induced hypertriglyceridemias, in comparison with the following standard: 1,10-bisL2-(hydroxyethyl)thio]decane (3) and its nicotinate (4) and nicoti- noyloxymethylcarbonyloxy ester (5).
All the compounds were administered 'at equimolecular gradual dosages.

[2] = test system: thrombosis induced by the administration of arachidonic acid, as well as colla- gene and adrenalin; experiment: Mouse antithrombotic assay (di Minno and Silver); assay type: in vivo; conditions: orally administered at doses from 100 to 250 mg/kg; thrombosis induced by arachidonic acid, and by collagen and adrenalin
From the text: Exper. Therap. 225, 57 (1983).

[3] = test system: hypercholesterolemic animals (Nath diet); experiment: Hypocholesterolemic/hypotriglyceridemic activity in hypercholesterolemic rats (Nath diet); assay type: in vivo, Male Sprague-Dawley rats; conditions: oral
Method: as §1, §2
Four dose levels: 1, 2, 4, 8 10^-3 mol/kg were used for each compound under test. The body growth and liver weight were evaluated.
as §3, §4, §5

[4] = test system: Normolipolysis; experiment: Antilipolytic activity, normolipolysis (free fatty acids); assay type: in vivo; conditions: for antilipolytic activity: oral, under normal feeding conditions and in lipolysis induced by fasting or adrenalin
Method: (§6) The compounds were administered orally. […] The results are expressed as µEq/1 of free fatty acids.
10 Animals per group - Normally feeded for 7 days, then administered with the test compounds.

[5] = test system: Fasting induced lipolysis; experiment: Antilipolytic activity, fasting induced lipolysis (free fatty acids); assay type: in vivo; conditions: fasted for 24 hours
Method: as §6
10 Animals per group - Normally feeded for 6 days, then fasted for 24 hours and orally administered with the test compounds.

[6] = test system: Adrenalin induced lypolysis; experiment: Antilipolytic activity, adrenalin induced lipolysis (free fatty acids); assay type: in vivo; conditions: 1·10^-3 mol/kg oral
Method: as §6
10 Animals per group - Feeded and housed for one weed, then administered orally and stimulated with adrenalin 1 mg/kg i.p., respectively 30 and 60 min. before killing.

[7] = test system: ear marginal veins; conditions: guinea pig, in vivo
From the text: (§7) Such a side-effect may be experimented on male albino Guinea pigs, weighing 300-400 g, normally feeded and housed in silent room, by observing the vasodilation of ear marginal veins, after administration of the test compounds.

[8] = test system: ear marginal veins; experiment: Vasodilation of ear marginal veins (flushing side-effect); conditions: Guinea pigs, 1·10^-3 mol/kg
From the text: as §7

[9] = 2 hours after 1·10^-3 mol/kg oral single dose, normally fed
[10] = 4 hours after 1·10^-3 mol/kg oral single dose, normally fed
[11] = 8 hours after 1·10^-3 mol/kg oral single dose, normally fed
[12] = Basal, normally fed 7 days, group later given 1·10^-3 mol/kg oral single dose
[13] = 2 hours after 1·10^-3 mol/kg oral single dose
[14] = 4 hours after 1·10^-3 mol/kg oral single dose
[15] = 8 hours after 1·10^-3 mol/kg oral single dose
[16] = 30', adrenalin 1 mg/kg i.p. 30 min before killing
[17] = 60', adrenalin 1 mg/kg i.p. 60 min before killing
[18] = 4·10^-3 mol/kg, % variation versus controls

SMILES | protection from thrombosis [2] | free fatty acids [4, 9] [µEq/1] | free fatty acids [4, 10] [µEq/1] | free fatty acids [4, 11] [µEq/1] | free fatty acids [4, 12] [µEq/1] | free fatty acids [5, 13] [µEq/1] | free fatty acids [5, 14] [µEq/1] | free fatty acids [5, 15] [µEq/1] | FFA [6, 16] [μEq/l] | FFA [6, 17] [μEq/l] | Vasodilating effect: Beginning [7] | Vasodilating effect: Beginning of disappearance [7] | Vasodilating effect: Maximal effect [7] | also measured
OCCSCCCCCCCCCCSCCO [Compound 3, 1,10-bis[2-(hydroxyethyl)thio]decane] |  |  |  |  |  |  |  |  |  |  |  |  |  | triglyceride hepatic concentration, increases [1]: 40-50%
CCC(C)C(NC(=O)c1cccnc1)C(=O)OCCSCCCCCCCCCCSCCOC(=O)C(NC(=O)c1cccnc1)C(C)CC (centres unmarked) | protect the mouse from thrombosis |  |  |  |  |  |  |  |  |  |  |  |  | 
O=C(OCCSCCCCCCCCCCSCCOC(=O)c1cccnc1)c1cccnc1 [Compound 4] |  | 120 | 155 | 450 | 230 | 250 | 240 | 970 | 295 | 625 | 10' | 48' | 25' | preliminar increase of the total cholesterol ([3]; 2·10^-3 mol/kg, versus controls): 10%; HDL concentration ([3]; all the assayed doses, the decrease lessened with increasing dose): marked decrease; triglyceride hematic concentration ([3]; all the tested doses, tendency to decrease with increasing dose): always higher than that in the control animals; decrease of the total cholesterol versus controls ([3]; doses above 2·10^-3 mol/kg, did not vary increasing the dose): 50%; liver weight ([3]; over the tested doses): gradual increase; triglyceride hepatic concentration, increases [1]: 40-50%
O=C(CNC(=O)c1cccnc1)OCCSCCCCCCCCCCSCCOC(=O)CNC(=O)c1cccnc1 [Compound 1] | protect the mouse from thrombosis | 200 | 225 | 270 | 230 | 480 | 430 | 400 | 450 | 400 | == | == | == | liver weight ([3]; 4·10^-3 mol/kg): no substantial changes; decrease in hematic triglycerides [3, 18]: 4%; decrease in hepatic triglycerides [3, 18]: 48%; decrease of total plasmatic cholesterol [3, 18]: 37%; increase in HDL cholesterol [3, 18]: 7%; triglyceride hepatic concentration, percent variations [1]: -10 to +10%
CC(NC(=O)c1cccnc1)C(=O)OCCSCCCCCCCCCCSCCOC(=O)C(C)NC(=O)c1cccnc1 (centres unmarked) [Example 7, 1,10-bis[2-(nicotinoyialanylethyl)thio]decane] | protect the mouse from thrombosis |  |  |  |  |  |  |  |  |  |  |  |  | 
O=C(CNC(=O)c1cncc(Br)c1)OCCSCCCCCCCCCCSCCOC(=O)CNC(=O)c1cncc(Br)c1 [Example 5, 1,10-Bis[2-(5-bromn-nicotinoylglicyl)ethyl-thio]decane] | protect the mouse from thrombosis |  |  |  |  |  |  |  |  |  |  |  |  | 
O=C(NC(Cc1ccccc1)C(=O)OCCSCCCCCCCCCCSCCOC(=O)C(Cc1ccccc1)NC(=O)c1cccnc1)c1cccnc1 (centres unmarked) [1,10-bis[2-(nicotinoylphenylalanyl)ethylthio]decane] | protect the mouse from thrombosis |  |  |  |  |  |  |  |  |  |  |  |  | 
O=C(O)c1cccnc1 [Compound 2, nicotinic acid] |  | 110 | 160 | 560 | 260 | 180 | 190 | 950 | 340 | 650 |  |  |  | antilipolytic activity [4]: proved to have antilipolytic activity; Vasodilating effect: Beginning [8]: 3'; Vasodilating effect: Beginning of disappearance [8]: 20'; Vasodilating effect: Maximal effect [8]: 6'
O=C(COC(=O)c1cccnc1)OCCSCCCCCCCCCCSCCOC(=O)COC(=O)c1cccnc1 [Compound 5, 1,10-bis[2-(nicotino-yloxymethylcarbonyloxy)ethylthio]decane] |  | 120 | 170 | 260 | 240 | 207 | 228 | 744 | 270 | 610 | 13' | 51' | 30' | concentration of hepatic triglycerides ([3]; 4·10^-3 mol/kg): increase; decrease in hematic HDL cholesterol [3, 18]: 6%; decrease in hematic triglycerides [3, 18]: 34%; decrease of total plasmatic cholesterol [3, 18]: 30%; triglyceride hepatic concentration, percent variations [1]: -10 to +10%; antilipolytic activity [4]: proved to have antilipolytic activity
Cc1cnc(C(=O)NCC(=O)OCCSCCCCCCCCCCSCCOC(=O)CNC(=O)c2cnc(C)cn2)cn1 [1,10-bis[2-(5-methylpyrazinoylglycyl)ethylthio]decane] | protect the mouse from thrombosis |  |  |  |  |  |  |  |  |  |  |  |  | 
